According to US20100298141A1, “SUBSTITUTED PYRIDINE N-OXIDE HERBICIDES” (E. I. DU PONT DE NEMOURS AND COMPANY, priority 2007, published 2010):

What was measured:
crabgrass [1] = assay: Test C pre-/postemergence test; type: in vivo, Digitaria sanguinalis; details: for Plant response rating, Crabgrass, Large: 31 g ai/ha, scale 0 to 100 (0 no effect, 100 complete control)
Outline: (§1)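 Compounds in a non-phytotoxic solvent with surfactant applied preemergence to seeded pots and, at the same time, postemergence to plants 2–18 cm tall (1- to 4-leaf stage). Paddy tests: pots flooded to 3 cm, compound applied into the water, depth held throughout.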

bermudagrass = assay: Test C pre-/postemergence test; type: in vivo, Cynodon dactylon; details: for Plant response rating, Bermudagrass: 31 g ai/ha
Outline: as §1

soybean = assay: Test C pre-/postemergence test; type: in vivo, Glycine max; details: for Plant response rating, Soybean: 31 g ai/ha, scale 0 to 100 (0 no effect, 100 complete control)
Outline: as §1

Goosegrass = assay: Test C pre-/postemergence test; type: in vivo, Eleusin indica; details: for Plant response rating, Goosegrass: 31 g ai/ha, scale 0 to 100 (0 no effect, 100 complete control)
Outline: as §1

corn [2] = assay: Test C pre-/postemergence test; type: in vivo, Zea mays
Outline: as §1

green foxtail = assay: Test C pre-/postemergence test; type: in vivo, Setaria viridis; details: for Plant response rating, Foxtail, Green: 31 g ai/ha, scale 0 to 100 (0 no effect, 100 complete control)
Outline: as §1

barnyardgrass [3] = assay: Test C flooded paddy test; type: in vivo, Echinochloa crus-galli; details: Flood
Outline: (§2)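 Ratings were visual and made relative to untreated controls after 13 to 15 greenhouse days.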

Italian ryegrass = assay: Test C pre-/postemergence test; type: in vivo, Lolium multiflorum; details: for Plant response rating, Ryegrass, Italian: 31 g ai/ha, scale 0 to 100 (0 no effect, 100 complete control)
Outline: as §1

duck salad = assay: Test C flooded paddy test; type: in vivo, Heteranthera limosa; details: Flood
Outline: as §2

yellow nutsedge = assay: Test C pre-/postemergence test; type: in vivo, Cyperus esculentus; details: for Plant response rating, Nutsedge, Yellow: 31 g ai/ha, scale 0 to 100 (0 no effect, 100 complete control)
Outline: as §1

umbrella sedge = assay: Test C flooded paddy test; type: in vivo, Cyperus difformis; details: Flood
Outline: as §2

barnyardgrass [4] = assay: Test A pre-/postemergence greenhouse test; type: in vivo, Echinochloa crus-galli; details: for Barnyardgrass plant response rating: 0 to 100 scale; for Plant response rating, Barnyardgrass: 0 to 100 scale where 0 is no effect and 100 is complete control
Outline: (§3)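 Visual injury ratings, made relative to untreated controls roughly ten days after treatment, cover both preemergence and postemergence application. Compounds in a surfactant-containing non-phytotoxic solvent were sprayed onto the soil surface after sowing and, simultaneously, onto young plants at the one- to two-leaf stage.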

crabgrass [5] = assay: Test A pre-/postemergence greenhouse test; type: in vivo, Digitaria sanguinalis; details: for Crabgrass, Large plant response rating: 0 to 100 scale; for Plant response rating, Crabgrass, Large: 0 to 100 scale where 0 is no effect and 100 is complete control
Outline: as §3

velvetleaf = assay: Test A pre-/postemergence greenhouse test; type: in vivo, Abutilon theophrasti; details: for Velvetleaf plant response rating: 0 to 100 scale; for Plant response rating, Velvetleaf: 0 to 100 scale where 0 is no effect and 100 is complete control
Outline: as §3

pigweed = assay: Test C pre-/postemergence test; type: in vivo, Amaranthus retroflexus; details: for Plant response rating, Pigweed: 31 g ai/ha, scale 0 to 100 (0 no effect, 100 complete control)
Outline: as §1

corn [6] = assay: Test A pre-/postemergence greenhouse test; type: in vivo, Zea mays; details: for Corn plant response rating: 0 to 100 scale; for Plant response rating, Corn: 0 to 100 scale where 0 is no effect and 100 is complete control
Outline: as §3

johnsongrass = assay: Test C pre-/postemergence test; type: in vivo, Sorghum halepense; details: for Plant response rating, Johnsongrass: 31 g ai/ha, scale 0 to 100 (0 no effect, 100 complete control)
Outline: as §1

[7] = 62 g ai/ha, Preemergence, scale 0 to 100
[8] = 125 g ai/ha, preemergence, scale 0 (no effect) to 100 (complete control)
[9] = preemergence, 250 g ai/ha, scale 0 (no effect) to 100 (complete control)
[10] = 62 g ai/ha, Preemergence, scale 0 to 100 (0 no effect, 100 complete control)
[11] = Preemergence, scale 0 to 100 (0 no effect, 100 complete control)
[12] = 31 g ai/ha, scale 0 to 100 (0 no effect, 100 complete control)
[13] = 62 g ai/ha, scale 0 to 100, 0 no effect, 100 complete control, 13 to 15 days
[14] = 125 g ai/ha, scale 0 to 100, 0 no effect, 100 complete control, 13 to 15 days
[15] = 250 g ai/ha, scale 0 to 100, 0 no effect, 100 complete control, 13 to 15 days
[16] = Postemergence, 125 g ai/ha, 0 is no effect, 100 is complete control
[17] = Postemergence, 500 g ai/ha, 0 is no effect, 100 is complete control
[18] = Preemergence, 125 g ai/ha, 0 no effect, 100 complete control
[19] = 62 g ai/ha, scale 0 to 100 (0 no effect, 100 complete control)

## Cc1cc[n+]([O-])c(S(=O)(=O)C(Cl)c2c(C(F)(F)F)nn(C)c2OCC(F)(F)F)c1 (racemic) [Compound 37]
Crabgrass [1]; [7]
  Crabgrass, Large plant response rating: 80
Crabgrass [1]; [8]
  Crabgrass, Large plant response rating: 100
Crabgrass [1]; Preemergence
  Plant response rating, Crabgrass, Large: 55
Crabgrass [1]; [9]
  Crabgrass, Large plant response rating: 100
bermudagrass; [10]
  Bermudagrass plant response rating: 90
bermudagrass; [8]
  Bermudagrass plant response rating: 100
bermudagrass; [11]
  Plant response rating, Bermudagrass: 85
bermudagrass; [9]
  Bermudagrass plant response rating: 100
soybean; [8]
  Soybean plant response rating: 10
soybean; Preemergence
  Plant response rating, Soybean: 0
soybean; [9]
  Soybean plant response rating: 10
Goosegrass; [7]
  Goosegrass plant response rating: 100
Goosegrass; [8]
  Goosegrass plant response rating: 100
Goosegrass; Preemergence
  Plant response rating, Goosegrass: 85
Goosegrass; [9]
  Goosegrass plant response rating: 100
Corn [2]; [7]
  Corn plant response rating: 5
Corn [2]; [8]
  Corn plant response rating: 50
Corn [2]; Preemergence, 31 g ai/ha, scale 0 to 100 (0 no effect, 100 complete control)
  Plant response rating, Corn: 0
Corn [2]; [9]
  Corn plant response rating: 90
Green foxtail; Preemergence
  Plant response rating, Foxtail, Green: 0
Green foxtail; [9]
  Foxtail, Green plant response rating: 100
Barnyardgrass [3]; [12]
  Plant response rating, Barnyardgrass: 10
Barnyardgrass [3]; [13]
  Plant response rating, Barnyardgrass: 10
Barnyardgrass [3]; [14]
  Plant response rating, Barnyardgrass: 10
Barnyardgrass [3]; [15]
  Plant response rating, Barnyardgrass: 80
Italian ryegrass; Preemergence
  Plant response rating, Ryegrass, Italian: 0
Italian ryegrass; [9]
  Ryegrass, Italian plant response rating: 100
Duck salad; [12]
  Plant response rating, Ducksalad: 20
Duck salad; [13]
  Plant response rating, Ducksalad: 40
Duck salad; [14]
  Plant response rating, Ducksalad: 85
Duck salad; [15]
  Plant response rating, Ducksalad: 95
Yellow nutsedge; [7]
  Nutsedge, Yellow plant response rating: 0
Yellow nutsedge; [8]
  Nutsedge, Yellow plant response rating: 80
Yellow nutsedge; Preemergence
  Plant response rating, Nutsedge, Yellow: 0
Yellow nutsedge; [9]
  Nutsedge, Yellow plant response rating: 80
Umbrella sedge; [12]
  Plant response rating, Sedge, Umbrella: 60
Umbrella sedge; [13]
  Plant response rating, Sedge, Umbrella: 85
Umbrella sedge; [14]
  Plant response rating, Sedge, Umbrella: 95
Umbrella sedge; [15]
  Plant response rating, Sedge, Umbrella: 95
Barnyardgrass [4]; [16]
  Barnyardgrass plant response rating: 30
Barnyardgrass [4]; [17]
  Barnyardgrass plant response rating: 70
Barnyardgrass [4]; [18]
  Barnyardgrass plant response rating: 90
Barnyardgrass [4]; Preemergence, 500 g ai/ha
  Plant response rating, Barnyardgrass: 100
Crabgrass [5]; [16]
  Crabgrass, Large plant response rating: 30
Crabgrass [5]; [17]
  Crabgrass, Large plant response rating: 80
Crabgrass [5]; [18]
  Crabgrass, Large plant response rating: 60
Crabgrass [5]; Preemergence, 500 g ai/ha
  Plant response rating, Crabgrass, Large: 90
velvetleaf; [16]
  Velvetleaf plant response rating: 0
velvetleaf; [17]
  Velvetleaf plant response rating: 10
velvetleaf; [18]
  Velvetleaf plant response rating: 40
velvetleaf; Preemergence, 500 g ai/ha
  Plant response rating, Velvetleaf: 80
pigweed; [7]
  Pigweed plant response rating: 100
pigweed; [8]
  Pigweed plant response rating: 100
pigweed; Preemergence
  Plant response rating, Pigweed: 80
pigweed; [9]
  Pigweed plant response rating: 100
Corn [6]; [16]
  Corn plant response rating: 0
Corn [6]; [17]
  Corn plant response rating: 40
Corn [6]; [18]
  Corn plant response rating: 0
Corn [6]; Preemergence, 500 g ai/ha
  Plant response rating, Corn: 30
johnsongrass; [7]
  Johnsongrass plant response rating: 80
johnsongrass; [8]
  Johnsongrass plant response rating: 80
johnsongrass; Preemergence
  Plant response rating, Johnsongrass: 50
johnsongrass; [9]
  Johnsongrass plant response rating: 95

## Cc1cc[n+]([O-])c(S(=O)(=O)Cc2c(C(F)(F)F)nn(C)c2OCC(F)F)c1 [Compound 94]
Crabgrass [1]; [7]
  Crabgrass, Large plant response rating: 98
Crabgrass [1]; [8]
  Crabgrass, Large plant response rating: 100
Crabgrass [1]; Preemergence
  Plant response rating, Crabgrass, Large: 20
Crabgrass [1]; [9]
  Crabgrass, Large plant response rating: 100
bermudagrass; [10]
  Bermudagrass plant response rating: 100
bermudagrass; [8]
  Bermudagrass plant response rating: 100
bermudagrass; [11]
  Plant response rating, Bermudagrass: 90
bermudagrass; [9]
  Bermudagrass plant response rating: 100
soybean; [7]
  Soybean plant response rating: 30
soybean; [8]
  Soybean plant response rating: 30
soybean; Preemergence
  Plant response rating, Soybean: 0
soybean; [9]
  Soybean plant response rating: 80
Goosegrass; [7]
  Goosegrass plant response rating: 100
Goosegrass; [8]
  Goosegrass plant response rating: 100
Goosegrass; Preemergence
  Plant response rating, Goosegrass: 95
Goosegrass; [9]
  Goosegrass plant response rating: 100
Corn [2]; [7]
  Corn plant response rating: 10
Corn [2]; [8]
  Corn plant response rating: 90
Corn [2]; [9]
  Corn plant response rating: 95
Green foxtail; [7]
  Foxtail, Green plant response rating: 100
Green foxtail; [8]
  Foxtail, Green plant response rating: 100
Green foxtail; Preemergence
  Plant response rating, Foxtail, Green: 98
Green foxtail; [9]
  Foxtail, Green plant response rating: 100
Barnyardgrass [3]; [19]
  Plant response rating, Barnyardgrass: 0
Barnyardgrass [3]; [15]
  Plant response rating, Barnyardgrass: 0
Italian ryegrass; [7]
  Ryegrass, Italian plant response rating: 70
Italian ryegrass; [8]
  Ryegrass, Italian plant response rating: 90
Italian ryegrass; Preemergence
  Plant response rating, Ryegrass, Italian: 0
Italian ryegrass; [9]
  Ryegrass, Italian plant response rating: 98
Duck salad; [19]
  Plant response rating, Ducksalad: 0
Duck salad; [15]
  Plant response rating, Ducksalad: 75
Yellow nutsedge; [7]
  Nutsedge, Yellow plant response rating: 55
Yellow nutsedge; [8]
  Nutsedge, Yellow plant response rating: 60
Yellow nutsedge; Preemergence
  Plant response rating, Nutsedge, Yellow: 0
Yellow nutsedge; [9]
  Nutsedge, Yellow plant response rating: 98
Umbrella sedge; [19]
  Plant response rating, Sedge, Umbrella: 0
Umbrella sedge; [15]
  Plant response rating, Sedge, Umbrella: 90
Barnyardgrass [4]; Postemergence, 125 g ai/ha
  Plant response rating, Barnyardgrass: 60
Barnyardgrass [4]; [17]
  Barnyardgrass plant response rating: 90
Barnyardgrass [4]; [18]
  Barnyardgrass plant response rating: 70
Barnyardgrass [4]; Preemergence, 500 g ai/ha
  Plant response rating, Barnyardgrass: 100
Crabgrass [5]; Postemergence, 125 g ai/ha
  Plant response rating, Crabgrass, Large: 70
Crabgrass [5]; [17]
  Crabgrass, Large plant response rating: 90
Crabgrass [5]; [18]
  Crabgrass, Large plant response rating: 90
Crabgrass [5]; Preemergence, 500 g ai/ha
  Plant response rating, Crabgrass, Large: 100
velvetleaf; Postemergence, 125 g ai/ha
  Plant response rating, Velvetleaf: 10
velvetleaf; [17]
  Velvetleaf plant response rating: 70
velvetleaf; [18]
  Velvetleaf plant response rating: 10
velvetleaf; Preemergence, 500 g ai/ha, 0 no effect, 100 complete control
  Velvetleaf plant response rating: 100
pigweed; [7]
  Pigweed plant response rating: 90
pigweed; [8]
  Pigweed plant response rating: 100
pigweed; Preemergence
  Plant response rating, Pigweed: 60
pigweed; [9]
  Pigweed plant response rating: 100
Corn [6]; Postemergence, 125 g ai/ha
  Plant response rating, Corn: 40
Corn [6]; [17]
  Corn plant response rating: 80
Corn [6]; [18]
  Corn plant response rating: 20
Corn [6]; Preemergence, 500 g ai/ha
  Plant response rating, Corn: 70
johnsongrass; [7]
  Johnsongrass plant response rating: 95
johnsongrass; [8]
  Johnsongrass plant response rating: 100
johnsongrass; Preemergence
  Plant response rating, Johnsongrass: 85
johnsongrass; [9]
  Johnsongrass plant response rating: 100
